Patent publication US7452965B2, “Colon tumor specific binding peptides” (University of Utah Research Foundation, priority 2002, dated 2008)
“Also recorded” adds a separate entry of the source. Ends that are not written are not given here.

How the values were obtained:
HT29 cells [1] = test: MTT cell viability after RPM-KLAK or KLAK; format: cell-based; conditions: 72 hours at 37° C.
Experimental: (§1) RPM-KLAK (SEQ ID NO: 132) and KLAK (SEQ ID NO: 133) on HT29 and HCT116 cells. HT29 and HCT116 cells were incubated with increasing log concentrations of RPM-KLAK (SEQ ID NO: 132) or KLAK (SEQ ID NO: 133) for 72 hours at 37° C. After incubation, MTT was added to a final concentration of […] and incubated at 37° C. for 1 hour. The media/MTT was removed carefully and the cells dissolved with 0.1N HCl in isopropanol. Absorbance was read on a plate reader (Cytofluor II, Perceptive Biosystems) at 570 nm.
(§2) Since RPM-FITC is internalized at 37° C., RPM may be used to deliver a toxin to HT29 cells. […] Cells that were incubated with (KLAK)2 (SEQ ID NO: 138) alone or with free peptide were refractory to death induced by the toxin. However, when a peptide that was specific and also internalized by cells was conjugated to (KLAK)2 (SEQ ID NO: 138), the cells were killed. RPM was coupled to (KLAK)2 (SEQ ID NO: 138) and incubated with HT29 and HCT116 cells with either (KLAK)2 (SEQ ID NO: 138) alone as a negative control or RPM-(KLAK)2 (SEQ ID NO: 5). Cells were treated for 72 hours at 37° C. At the end of the incubation, cell viability was measured by MTT assay. […] This was indeed observed for HCT116 incubation with RPM (KLALK)2 (SEQ ID NO: 5) (FIG. 6B).

HCT116 cells [2] = test: MTT cell viability after RPM-KLAK or KLAK; format: cell-based; conditions: 72 hours at 37° C.
Experimental: as §1, §2

HCT116 cells [3] = test: RPM-FITC immunofluorescence staining of cultured cells (confocal microscopy); format: cell-based; conditions: 1 hour at 4° C.
Experimental: Cell Culture: HT29, HCT116, or a 50% mixture of HT29 and HCT116 cells were plated on glass slides (Nalge). […] After washing with wash buffer, cells were blocked with 1% NGS, 0.1% BSA, 0.1% Triton-X100 in PBS. Following the blocking step, wells were incubated with the polyclonal p53 antibody, D10, (Santa Cruz) for 1 hour at room temperature. The wells were washed and incubated with the secondary antibodies GαFITC Alexa 488 (Molecular Probes) and GαMouse Alexa 647 (Molecular Probes) and the nuclear stain Topro-3 (Molecular Probes). Wells were washed and mounted using Pro-Long Anti-fade (Molecular Probes). Slides were analyzed by confocal microscopy.
The peptide then was tested to determine whether it was able to differentiate HT29 from HCT116 cells. In order to distinguish HT29 from HCT116 cells in our immunohistochemical assays, staining was carried out in the presence of the transcription factor, p53. Staining for the protein p53 is a way to visually discriminate HT29 from HCT116 cells, since p53 is mutated and accumulates in HT29 cells but is wild type in HCT116 cells and thus, is rapidly degraded. […] When a mixture of HT29 and HCT116 cells was incubated with RPM-FITC and concurrently analyzed for the presence of p53, cells with the highest level of p53 protein also bound RPM-FITC (FIG. 5A).

HT29 cells [4] = test: as above; format: cell-based; conditions: for localisation of peptide in HT29 cells: 100 uM, 1 hour
Experimental: Cell Culture: HT29, HCT116, or a 50% mixture of HT29 and HCT116 cells were plated on glass slides (Nalge). Wells were incubated with 10 μM of RPM-FITC peptide for 45 minutes at 4° C. or 37° C. After washing with wash buffer, cells were blocked with 1% NGS, 0.1% BSA, 0.1% Triton-X100 in PBS. Following the blocking step, wells were incubated with the polyclonal p53 antibody, D10, (Santa Cruz) for 1 hour at room temperature. The wells were washed and incubated with the secondary antibodies GαFITC Alexa 488 (Molecular Probes) and GαMouse Alexa 647 (Molecular Probes) and the nuclear stain Topro-3 (Molecular Probes). Wells were washed and mounted using Pro-Long Anti-fade (Molecular Probes). Slides were analyzed by confocal microscopy.
The peptide then was tested to determine whether it was able to differentiate HT29 from HCT116 cells. In order to distinguish HT29 from HCT116 cells in our immunohistochemical assays, staining was carried out in the presence of the transcription factor, p53. Staining for the protein p53 is a way to visually discriminate HT29 from HCT116 cells, since p53 is mutated and accumulates in HT29 cells but is wild type in HCT116 cells and thus, is rapidly degraded. […] To test the ability of the fluorescein conjugated peptide (RPM-FITC) to preferentially bind HT29 cells, HT29 and HCT116 cells were stained with RPM-FITC. […] When a mixture of HT29 and HCT116 cells was incubated with RPM-FITC and concurrently analyzed for the presence of p53, cells with the highest level of p53 protein also bound RPM-FITC (FIG. 5A).
The ability of a molecule to translocate across the cell membrane is important for drug delivery. HT29 cells were incubated for 1 hour at either 4° C. or 37° C. in the presence of 100 uM RPM-FITC. After incubation, cells were washed, fixed with 2% paraformaldehyde, then incubated with an anti-FITC secondary antibody to amplify the fluorescence signal.

[5] = system: grossly uninvolved normal colon; test: Peptide-binding assay on frozen tissue sections; parameters: species or system human
Experimental: (§3) A biopsy of sporadic colon adenocarcinoma, liver and lung sarcoma, and grossly uninvolved colon, liver, lung, and stomach were frozen in optimum cutting temperature (OCT) and […] cryostat sections placed on glass slides. Sections were stained with H&E and untreated adjacent sections were incubated with RPM-FITC. After incubating with RPM-FITC in binding buffer for 45 minutes at 4° C., slides were washed and mounted using Pro-Long Anti-Fade (Molecular Probes). Nuclei were visualized by a quick incubation with Topro-3 (Molecular Probes) present in the last wash. Samples were analyzed by confocal microscopy.

human colon tumor = test: Peptide-binding assay on frozen tissue sections; conditions: frozen sections, 4° C.
Experimental: as §3

[6] = system: lung and liver cancer, grossly uninvolved lung, liver, and stomach; test: Peptide-binding assay on frozen tissue sections; parameters: species or system human; conditions: cryostat sections
Experimental: as §3
To determine whether RPM-FITC was able to bind cancers originated from tissues other than colon or to other normal tissues, a peptide-binding assay was performed on cryostat sections of lung and liver cancer, and grossly uninvolved lung, liver, and stomach. As a positive control, a section of colon tumor was stained in parallel with the other sections. […] Binding to HT29 Cells is Dependent on the Amino Acids, RPMC-C (SEQ ID NO: 136).

binding to adjacent normal colon tissue [5]	binding/staining of human colon tumor sections (human colon tumor; listed as FITC-conjugated RPM)	labeling of lung and liver cancer and uninvolved lung, liver, stomach [6]	Substance	effect on HT29 cell viability (HT29 cells [1])	effect on HCT116 cell viability (HCT116 cells [2])	RPM-FITC staining of HCT116 cells (HCT116 cells [3])	localisation of peptide in HT29 cells (HT29 cells [4]; 4° C.)	localisation of peptide in HT29 cells (HT29 cells [4]; 37° C.)	RPM-FITC staining of HT29 cells (HT29 cells [4]; 1 hour at 4° C.)	binding/staining of human colon tumor sections (human colon tumor)
–	–	–	(KLAK)2: antimicrobial toxin that selectively disrupts the mitochondrial membrane of eukaryotic cells, SEQ ID NO: 138 / 133 (KLAKKLAK) [reference compound]	did not effect the viability	did not effect the viability	–	–	–	–	–
no binding	showed binding	no labeling	RPM-FITC: fluorescein conjugated peptide (RPM-FITC) (CPIEDRPMC; cysteine pairing not given here; also: fluorescein (FITC) conjugated, position not given here)	–	–	little or no fluorescence	confined to the cell surface	diffuse staining throughout the cells	showed fluorescence	preferential binding; also recorded: bright staining
